Experimental data reported in publication PMC8620685, “Effect of Selected Silyl Groups on the Anticancer Activity of 3,4-Dibromo-5-Hydroxy-Furan-2(5H)-One Derivatives” (Pharmaceuticals, 2021).
Where two headings read alike, the source gives them in different places.

Assays:
[1] = system: A549; assay: MTT assay, NSCLC cell line A549; assay type: cell-based, human; settings: for IC50: Homo sapiens, read-out: IC50 (cytotoxicity), A549; for SI: selectivity, A549 versus BEAS-2B
Procedure: One of the major drawbacks of currently used anticancer drugs is their low selectivity, which often leads to undesired side effects that may be harmful to patients. Overcoming this challenging task requires special attention at the pre-clinical development level. To check whether silyl group incorporation may affect the selectivity of compounds towards cancer cells, MBA and all its new silyl derivatives were tested for their efficacy on noncancerous BEAS-2B and cancerous A549 cells line. […] In contrast, compounds 3a and 3d were more cytotoxic to A549 cells with SI values 6.05 and 1.72, respectively. Strikingly, those two compounds have similar cLogP values 3.08 and 3.22, respectively.
(§1) Human cells lines: colon cancer (HCT-116 wt, HT-29), non-small lung carcinoma (A549), and bronchial epithelial cells (BEAS-2B) were obtained from American Type Culture Collection (ATCC, Manassas, VA, USA). Isogenic cell line HCT 116 p53^−/− (deleted both p53 alleles) were a gift from Dr. Bert Vogelstein. Other cell lines, namely MCF-7, SJSA-1, U2OS, HepG2, and Hep3B were received from the collection stored at Centre of Biotechnology of Silesian University of Technology. All cells were grown in DMEM with a high glucose medium (Sigma-Aldrich, Taufkirchen, Germany) supplemented with 10% (v/v) inactivated fetal bovine serum (FBS) (EURx, Gdańsk, Poland) and 1% antibiotics (10,000 μg/mL of streptomycin and 10,000 units/ml of penicillin) (Sigma-Aldrich, Taufkirchen, Germany) at 37 °C in humidified 5% CO2. The maximum concentration of DMSO in the culture media was 0.4%.
(§2) 5 × 10^3 cells per well for the MCF-7 cell line and 2.5 × 10^3 cells per well for the other cell lines were seeded in 96-well plates to adhere for 24 h. Afterward, the cells were treated with tested compounds. After 72 hours of incubation, 50 μL 0.5 mg/ml solution of MTT (3-(4,5-dimethylthiazol-2-yl)-2,5-diphenyl-2H-tetrazolium bromide) were added to each well and the plates were incubated for 3 h at 37 °C. Next, the MTT solution was removed from the plates and formed formazan crystals were dissolved in 2-propanol (Avantor Performance Materials, Gliwice, Poland) containing 0.04 M hydrochloric acid (Avantor Performance Materials, Gliwice, Poland). The absorbance was measured at 570 nm wavelength using a multiwall plate reader (BioTek, Winooski, VT, USA). The experiment was performed at a minimum of 3 independent replicates. Cell viability was set as a percentage versus vehicle control. IC50 was defined as a concentration of a drug that decreased cell viability by 50% relative to the untreated control.

[2] = system: Hep3B; assay: MTT assay, Hep3B; assay type: cell-based; settings: Homo sapiens, read-out: IC50 (cytotoxicity), Hep3B
Procedure: (§3) The in vitro antitumor activities of the MBA and its derivatives (Table 2) were assayed against a panel of human cancer cell lines (HCT116, HCT-116 ^−/−p53, HT-29, MCF-7, SJSA-1, U2OS, HepG2 and Hep3B) using the MTT assay. As a reference drug we used 5-fluorouracil (5-FU). […] On the basis of in vitro antiproliferative activities, compounds 3b and 3c were selected for further mechanistic studies in the HCT-116 cell line.
as §1, §2

[3] = system: HCT 116 p53−/−; assay: MTT assay, HCT 116 p53−/−; assay type: cell-based; settings: Homo sapiens, HCT-116, 72 h, read-out: IC50 (cytotoxicity), HCT 116 p53−/−
Procedure: as §3, §1, §2

[4] = system: U2OS; assay: MTT assay, U2OS; assay type: cell-based; settings: Homo sapiens, 72 h, read-out: IC50 (cytotoxicity), U2OS
Procedure: as §3, §1, §2

[5] = system: SJSA-1; assay: MTT assay, SJSA-1; assay type: cell-based; settings: Homo sapiens, read-out: IC50 (cytotoxicity), SJSA-1
Procedure: as §3, §1, §2

[6] = system: HCT-116 cells; assay: Cell cycle analysis (PI staining, flow cytometry); assay type: cell-based, human; settings: 24 h; for effect on progression of the cell cycle / increase of the sub-G1 population / sub-G1 cells: HCT-116; for sub-G1 cells: untreated cells 0.3%
Procedure: To better understand the origin of the higher susceptibility of colon cancer cells to MBA and its novel derivatives, compounds 3b and 3c were selected to test their ability to perturb the cell cycle in the HCT-116 cell line. […] However, a significant increase in the percentage of sub-G1 cells after treatment with compounds 3b and 3c was observed. Compound 3b increased the sub-G1 population by 10% and 31%, at a concentration of 10 μM and 20 μM, respectively, while compound 3c exerts such effect only by 10% at the highest tested concentration (Figure 2).
The HCT 116 cells were seeded in 6-well plates (Nunc, ThermoFisher, Waltham, MA, USA) at a density of 5 × 10^4 cells/well. After 24 h the medium was replaced with tested compounds. The cells were incubated for 24 h at 37 °C. Afterward, floating cells were collected and adherent cells were harvested by trypsinization and centrifuged at 600× g. The cells were washed with PBS (phosphate buffered saline) (Sigma-Aldrich, Taufkirchen, Germany) and then fixed in 70% ice-cold ethanol and stored at −20 °C overnight. The next day the cells were centrifuged at 600× g, washed with PBS, treated with 100 μg/mL RNase A solution (EURx, Gdańsk, Poland), 100 μg/ml solution of propidium iodide (PI) (Acros Organics, Geel, Belgium) and incubated for 30 min at room temperature in the dark. After staining, the cells were analyzed using a Becton Dickinson FACS Aria III sorter (BD Company, San Diego, CA, USA). Experiments were repeated at least twice. Data were analyzed using ModFit LTTM Software (Verity Software House, Topsham, ME, USA).

[7] = system: HCT 116 wt; assay: MTT assay, HCT 116 wt; assay type: cell-based, human; settings: Homo sapiens, HCT-116, 72 h, read-out: IC50 (cytotoxicity), HCT 116 wt, MTT, 72 h incubation
Procedure: as §3, §1, §2

[8] = system: HCT-116 cells; assay: Annexin V-FITC/PI apoptosis assay; assay type: cell-based, human
Procedure: To verify this thesis, we utilized annexin-V/PI double staining of cells, which were subsequently subjected to flow cytometric analysis.
The HCT 116 cells were seeded in 6-well plate (Nunc, ThermoFisher, Waltham, MA, USA) at a density of 5 × 10^4 cells/well and allowed to attach. After 24 h the medium was replaced with tested compounds. The cells were then incubated for 24 h at 37 °C. Next, both floating and adherent cells were harvested and centrifuged at 600× g. The cells were washed with PBS (phosphate buffered saline) (Sigma-Aldrich, Taufkirchen, Germany) and we followed instructions from the manufacturer of the Annexin V-FITC Apoptosis Detection Kit (Biotool, Jupiter, FL, USA). Fluorescence was measured using a Becton Dickinson FACS Aria III sorter (BD Company, San Diego, CA, USA). Experiments were repeated at least twice. Data were analyzed using FCE Express 7 Software (DeNovo Software, Pasadena, CA, USA).

CC(C)[Si](OC1OC(=O)C(Br)=C1Br)(C(C)C)C(C)C (stereo not drawn) [Compound 3b, 3,4-Dibromo-5-(triisopropylsilyloxy)-furan-2(5H)-one]
IC50 ([1]; A549, MTT, 72 h incubation): 30.4 ± 4.2 µM
SI [1]: 0.41
IC50 ([2]; MTT, 72 h incubation): 21.3 ± 3.5 µM
IC50 [3]: 10.8 ± 1 µM
IC50 [4]: 9.3 ± 0.2 µM
IC50 ([5]; SJSA-1, MTT, 72 h incubation): 9.9 ± 1.1 µM
effect on progression of the cell cycle ([6]; 10 μM): neither the MBA nor its silyl derivatives 3b and 3c tested at 10 μM, influenced the progression of the cell cycle
increase of the sub-G1 population ([6]; 10 μM): 10%
effect on progression of the cell cycle ([6]; 20 μM): did not alter the progression of the cell cycle
increase of the sub-G1 population ([6]; 20 μM): 31%
IC50 [7]: 15.1 ± 1.2 µM
apoptotic (death) cells in total, annexin-V+/PI− plus annexin-V+/PI+ ([8]; 20 μM, 24 h, HCT-116): roughly 30%
induction of apoptosis / cell death in HCT-116 ([8]; HCT-116, statement in discussion): rapidly triggered cell death

CC(C)(C)[Si](OC1OC(=O)C(Br)=C1Br)(c1ccccc1)c1ccccc1 (stereo not drawn) [Compound 3c, 3,4-Dibromo-5-(tert-butyldiphenylsilyloxy)-furan-2(5H)-one]
IC50 ([1]; A549, MTT, 72 h incubation): 29.1 ± 1 µM
SI [1]: 0.70
IC50 ([2]; MTT, 72 h incubation): 65.6 ± 2.2 µM
IC50 [3]: 4 ± 0.3 µM
IC50 [4]: 10.2 ± 0.8 µM
IC50 ([5]; SJSA-1, MTT, 72 h incubation): 14.9 ± 1.5 µM
effect on progression of the cell cycle ([6]; 10 μM): neither the MBA nor its silyl derivatives 3b and 3c tested at 10 μM, influenced the progression of the cell cycle
effect on progression of the cell cycle ([6]; 20 μM): did not alter the progression of the cell cycle
increase of the sub-G1 population ([6]; 20 μM): 10%
IC50 [7]: 6.3 ± 0.3 µM
apoptotic (death) cells in total, annexin-V+/PI− plus annexin-V+/PI+ ([8]; 20 μM, 24 h, HCT-116): 18.5%

O=C1OC(O)C(Br)=C1Br (stereo not drawn) [MBA, 3,4-dibromo-5-hydroxyfuran-2(5H)-one, reference compound]
IC50 ([1]; A549, 72 h): 203 ± 0.3 µM
SI [1]: 0.2
IC50 ([2]; 72 h): 125 ± 10.5 µM
IC50 [3]: 25.4 ± 6 µM
IC50 [4]: 97.6 ± 1.1 µM
IC50 ([5]; SJSA-1, 72 h): 213 ± 8.8 µM
effect on progression of the cell cycle ([6]; 10 μM): neither the MBA nor its silyl derivatives 3b and 3c tested at 10 μM, influenced the progression of the cell cycle
sub-G1 cells ([6]; 10 μM): 0.7%
percentage of cells in G1 phase ([6]; 20 μM, HCT 116, representative cytogram): 38.9%
sub-G1 cells ([6]; 20 μM): 1.6%
IC50 [7]: 20.5 ± 5.2 µM
proapoptotic activity ([8]; 20 μM, 24 h, HCT-116): negligible proapoptotic activity
